The text below walks through data of ChEMBL document CHEMBL1201862, “PubChem BioAssay data set” (2004).

Active and inactive are the calls of the source.

The subject of assay [1] is Streptococcus. The assay can be described thus: GAS UMAA2166 growth inhibition – luminescence, BacTiterGlo, counter-screen for streptokinase expression inhibitor project, dose response (AID 1915).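 Further: potency for reduction of bacterial viability or growth.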 Type of assay: functional, organism-based. Background: The purpose of a counterscreen is to sort out artefacts and off-target activity.
Assay [2] has as its system Streptococcus sp. 'group A'. Briefly: Streptococcus pyogenes SK(-)GAS viability under kanamycin – luminescence, BacTiterGlo, confirmation, counter-screen for streptokinase expression inhibitor project, dose response (AID 1900). In kind it is functional, organism-based.
Assay [3] can be described thus: HEK-293T viability loss after treatment – luminescence, T-cell screen hits, cytotoxicity control for TCR NF-kB inhibitor project, dose response (AID 489026).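 Further: cells exposed to compound about 14 hours before the viability readout.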 Type of assay: functional, cell-based.
A short description of assay [4]: cells. In kind it is functional.
Assay [5] can be described thus: alpha-synuclein stem-loop luciferase translation blockers – H4 neuroglioma cells, luminescence, confirmation (AID 1988). In kind it is functional, cell-based.
Assay [6] can be described thus: alpha-synuclein stem-loop translation blockers – luminescence, H4 neuroglioblastoma cells, dose confirmation, confirmation (AID 2454).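 Further: H4 neuroglioblastoma cells carrying an alpha-synuclein 5'UTR luciferase reporter; potency for inhibition of the luciferase signal.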 Type of assay: functional, cell-based.
Assay [7] can be described thus: THP-1 cell cytotoxicity, dose response, cytotoxicity control for non-replicating M. tuberculosis project (AID 489025). In kind it is functional.
Assay [8] in a line: cells. In kind it is functional, cell-based.
Assay [9] has as its system INS1. Briefly: INS-1E survival protection against cytokine death – cell-based, luminescence, retest, dose response (AID 449756).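 Further: cell death triggered by IL-1 beta plus TNF-alpha plus IFN-gamma mixture; protective hits raise ATP signal compared with cytokine alone wells.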 Type of assay: functional. Conditions: Rattus norvegicus.
Assay [10] concerns the target T1, Streptokinase A (Streptococcus pyogenes serotype M1, UniProt P10520).
T1 sequence (P10520 whole entry): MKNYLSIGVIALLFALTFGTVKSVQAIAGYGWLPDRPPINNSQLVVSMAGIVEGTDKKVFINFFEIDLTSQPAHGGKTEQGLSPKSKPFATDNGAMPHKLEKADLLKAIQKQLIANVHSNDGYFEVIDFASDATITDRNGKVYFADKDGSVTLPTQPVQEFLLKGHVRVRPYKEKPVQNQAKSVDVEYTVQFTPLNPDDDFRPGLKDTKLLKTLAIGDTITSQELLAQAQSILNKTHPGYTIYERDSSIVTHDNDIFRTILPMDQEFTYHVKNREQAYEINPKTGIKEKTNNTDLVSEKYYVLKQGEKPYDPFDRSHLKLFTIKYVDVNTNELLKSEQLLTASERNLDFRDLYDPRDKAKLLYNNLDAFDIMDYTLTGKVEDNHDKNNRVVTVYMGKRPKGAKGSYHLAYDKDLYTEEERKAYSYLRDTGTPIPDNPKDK
The assay can be described thus: viability-normalized secreted streptokinase activity reduction – plasminogen activation absorbance, OD405, dose response (AID 1914).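 Further: secreted streptokinase activity via plasminogen activation per viability signal from cell pellet.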 Type of assay: functional, Streptococcus pyogenes M1 GAS.

Assay [11] can be described thus: microbe, parasite or virus in culture. Conditions: Mycobacterium tuberculosis. In kind it is functional.
Assay [12] is described as follows: luciferase reporter signal reduction – luminescence, H4-C neuroglioblastoma cells, dose response (AID 2458).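 Further: H4 neuroglioblastoma cells stably carrying a luciferase reporter gene fusion.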 Type of assay: functional, cell-based. (In general: Reporter assays use an easily measured gene product as a stand-in for the process of interest.)
The nature of assay [13]: Vero E6 cell cytotoxicity, dose response, cytotoxicity control for non-replicating M. tuberculosis project, secondary assay (AID 492998). To be noted: Vero C1008. Type of assay: functional, VeroE6.
Assay [14] deals with HEK293. The assay can be described thus: Fluorescence-based counterscreen for potentiators or agonists of NPY-Y2: cell-based high-throughput dose response assay to identify inhibitors of cyclic nucleotide gated ion channel (CNGC) activity. In this assay, the parental HEK293 cell line transfected with a cyclic-nucleotide gated ion channel (CNGC)-based cAMP sensor is used to measure inhibition of isoproterenol-induced CNGC activity by test compound. In kind it is functional. Conditions: Homo sapiens.

Assay [15] deals with Neuropeptide Y receptor type 2 (Homo sapiens, UniProt P49146). The assay can be described thus: Fluorescence-based cell-based high-throughput dose response assay for agonists of NPY-Y2. [Related pubchem assays: 1703 (Screening assay (CNGC inhibitors).), 1359 (Screening assay (NPY-Y2 potentiators or agonists).), 1304 (Screening assay (NPY-Y1 potentiators or agonists).), 1710 (Screening assay (NPY-Y2 agonists).), 1791 (Summary AID.)]. Type of assay: functional.

Assay [16] in a line: Trypanosoma cruzi growth suppression in host cells – NIH3T3 host cells, beta-gal luminescence, confirmation (AID 2044).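 Further: intracellular parasites grown in NIH/3T3 mouse fibroblasts as host cells; luminescent beta-galactosidase reporter signal from transgenic T. cruzi replicating inside host cells; inhibitors lower the luminescence signal.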 In kind it is functional, cell-based.
The nature of assay [17]: NIH3T3 cell viability loss – ATP luminescence, mouse fibroblasts, counter-screen, dose response (AID 2010).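 Further: cells exposed to compound for about 90 hours before reading.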 In kind it is functional, cell-based.
For assay [18], the target named is Neuropeptide Y receptor type 1 (Homo sapiens, UniProt P25929). Briefly: Fluorescence-based counterscreen for agonists of NPY-Y2: cell-based high-throughput dose response assay for agonists of NPY-Y1. Type of assay: functional.
The target in assay [19] is T2, Heat shock factor protein 1 (Mus musculus, UniProt P38532).
T2 sequence (P38532 whole entry): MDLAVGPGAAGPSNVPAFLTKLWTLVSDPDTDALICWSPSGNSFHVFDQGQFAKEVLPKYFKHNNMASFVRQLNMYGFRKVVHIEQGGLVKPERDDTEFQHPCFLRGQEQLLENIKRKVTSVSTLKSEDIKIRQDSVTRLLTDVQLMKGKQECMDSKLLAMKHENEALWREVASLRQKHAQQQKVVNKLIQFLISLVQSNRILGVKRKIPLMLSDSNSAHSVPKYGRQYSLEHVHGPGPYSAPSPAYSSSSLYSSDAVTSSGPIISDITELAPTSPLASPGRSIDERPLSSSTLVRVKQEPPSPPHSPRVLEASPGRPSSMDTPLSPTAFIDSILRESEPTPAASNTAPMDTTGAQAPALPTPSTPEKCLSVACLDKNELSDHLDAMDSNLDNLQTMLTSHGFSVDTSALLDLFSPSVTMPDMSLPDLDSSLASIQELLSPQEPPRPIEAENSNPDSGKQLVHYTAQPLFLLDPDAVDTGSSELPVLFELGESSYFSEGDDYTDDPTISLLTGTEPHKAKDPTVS
The assay can be described thus: decrease of HSF1-responsive luciferase luminescence – cell-based, NIH3T3, dose retest, confirmation (AID 2382).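 Further: NIH3T3 fibroblasts with HSF1-driven luciferase reporter stressed by proteasome inhibitor MG132; luminescence from HSF1-driven luciferase expression after 8 hours of MG132 stress.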 Type of assay: functional.

Assay [20] has as its target T3, Estrogen receptor (Homo sapiens, UniProt P03372).
T3 sequence (P03372 whole entry): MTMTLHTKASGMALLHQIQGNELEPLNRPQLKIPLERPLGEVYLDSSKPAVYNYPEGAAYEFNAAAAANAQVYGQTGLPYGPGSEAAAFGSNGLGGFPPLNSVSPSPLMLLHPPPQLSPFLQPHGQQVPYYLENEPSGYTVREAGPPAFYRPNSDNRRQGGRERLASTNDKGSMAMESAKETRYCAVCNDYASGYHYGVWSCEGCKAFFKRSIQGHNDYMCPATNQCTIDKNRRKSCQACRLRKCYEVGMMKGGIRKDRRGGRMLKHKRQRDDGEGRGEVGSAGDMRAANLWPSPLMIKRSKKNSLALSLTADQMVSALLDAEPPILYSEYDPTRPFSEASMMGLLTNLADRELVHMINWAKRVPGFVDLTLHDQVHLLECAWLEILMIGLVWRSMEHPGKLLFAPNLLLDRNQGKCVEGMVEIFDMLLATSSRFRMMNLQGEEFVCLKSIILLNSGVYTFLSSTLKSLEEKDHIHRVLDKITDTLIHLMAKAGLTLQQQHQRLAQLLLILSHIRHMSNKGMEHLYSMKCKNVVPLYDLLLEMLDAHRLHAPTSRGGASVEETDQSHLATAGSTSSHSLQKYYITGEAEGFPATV
Briefly: blockers of SRC-3 recruitment to ERα – biochemical, ELISA, streptavidin-HRP readout, orthogonal assay, confirmation (AID 1079).

Assay [21] addresses T4, Heat shock 70 kDa protein 1A (Homo sapiens, UniProt P0DMV8). The assay can be described thus: small molecules displacing fluorescent ligand from Hsp70 – biochemical, fluorescence polarization, primary screen (AID 583). A general note: In fluorescence polarisation assays a small probe gives low polarisation when free and higher when bound to something large.
Assay [22] deals with T4, Heat shock 70 kDa protein 1A. Briefly: small-molecule inhibition of Hsp70 – biochemical, TR-FRET (AID 786).
The target of assay [23] is Lysosomal acid glucosylceramidase (Homo sapiens, UniProt P04062). Briefly: Dose response cell-based high throughput screening assay to identify enhancers of beta-glucosidase activity. [Related pubchem assays: 784 ]. In kind it is functional.
The subject of assay [24] is BJ. Briefly: BJ-TERT-LT-ST fibroblast viability loss – cell-based, RAS-independent, luminescence, dose response (AID 1935).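 Further: BJ fibroblasts immortalized with TERT plus LT and ST oncogenes.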 In kind it is functional. To be noted: Homo sapiens.
Assay [25] in a line: DRD fibroblast viability loss – cell-based, non-viral oncogenic, luminescence, dose response (AID 1934). Type of assay: functional. To be noted: Homo sapiens.
Assay [26] deals with BJ. The assay can be described thus: BJ-TERT fibroblast viability loss – cell-based, RAS-independent, luminescence, dose response (AID 1933). In kind it is functional. To be noted: Homo sapiens.
The test system of assay [27] is HeLa. Briefly: Cytotoxicity counterscreen assay for transcriptional activators of heat shock protein 70 (Hsp70). [Related pubchem assays: 1203, 1252 ]. To be noted: Homo sapiens. In kind it is functional.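 Further: cells exposed to compound for 16 hours before readout.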
For assay [28], the target named is Wee1-like protein kinase (Homo sapiens, UniProt P30291). Briefly: Dose Response Cell-based Assay for Inhibitors of Wee1 Degradation. [Related pubchem assays: 1410, 1321 ]. In kind it is functional.
Chain of Wee1-like protein kinase (P30291 whole entry): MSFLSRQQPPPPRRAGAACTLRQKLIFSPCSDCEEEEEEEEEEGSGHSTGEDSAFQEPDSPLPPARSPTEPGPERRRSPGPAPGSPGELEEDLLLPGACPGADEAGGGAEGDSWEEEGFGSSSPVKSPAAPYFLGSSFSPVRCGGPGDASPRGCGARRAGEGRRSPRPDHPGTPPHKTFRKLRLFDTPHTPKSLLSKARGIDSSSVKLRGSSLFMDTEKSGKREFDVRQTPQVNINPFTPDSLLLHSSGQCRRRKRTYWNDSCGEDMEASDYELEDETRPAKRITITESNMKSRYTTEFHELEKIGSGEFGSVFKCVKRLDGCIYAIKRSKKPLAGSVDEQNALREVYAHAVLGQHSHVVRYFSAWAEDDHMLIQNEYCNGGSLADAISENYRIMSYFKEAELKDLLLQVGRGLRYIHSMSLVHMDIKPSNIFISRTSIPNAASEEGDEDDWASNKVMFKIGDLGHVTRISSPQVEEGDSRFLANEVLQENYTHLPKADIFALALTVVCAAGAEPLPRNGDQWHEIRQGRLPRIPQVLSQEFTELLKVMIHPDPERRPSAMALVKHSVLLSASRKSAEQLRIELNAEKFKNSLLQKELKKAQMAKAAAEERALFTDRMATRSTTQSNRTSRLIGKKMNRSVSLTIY
In assay [29] the target is G2/mitotic-specific cyclin-B1 (Homo sapiens, UniProt P14635). The assay can be described thus: Counterscreen assay for inhibitors of Wee1 degradation: dose response cell-based assay to identify inhibitors of cyclin B degradation. [Related pubchem assays: 1410, 1321 ]. In kind it is functional.
Assay [30] concerns BJ. The assay can be described thus: cells. Type of assay: functional, cell-based. Conditions: Homo sapiens.
The target in assay [31] is E3 ubiquitin-protein ligase Mdm2 (Homo sapiens, UniProt Q00987). The assay can be described thus: MDM2-luc reporter signal enhancers, multi-concentration potency testing, MDM2 ubiquitin-protein ligase inhibitor program, whole-cell format, luminescence detection, 384-well microplate (AID 1394).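 Further: MDM2 E3 inhibitors raise luminescence so EC50 is for signal enhancement.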 Type of assay: functional.
Chain of E3 ubiquitin-protein ligase Mdm2 (Q00987 whole entry): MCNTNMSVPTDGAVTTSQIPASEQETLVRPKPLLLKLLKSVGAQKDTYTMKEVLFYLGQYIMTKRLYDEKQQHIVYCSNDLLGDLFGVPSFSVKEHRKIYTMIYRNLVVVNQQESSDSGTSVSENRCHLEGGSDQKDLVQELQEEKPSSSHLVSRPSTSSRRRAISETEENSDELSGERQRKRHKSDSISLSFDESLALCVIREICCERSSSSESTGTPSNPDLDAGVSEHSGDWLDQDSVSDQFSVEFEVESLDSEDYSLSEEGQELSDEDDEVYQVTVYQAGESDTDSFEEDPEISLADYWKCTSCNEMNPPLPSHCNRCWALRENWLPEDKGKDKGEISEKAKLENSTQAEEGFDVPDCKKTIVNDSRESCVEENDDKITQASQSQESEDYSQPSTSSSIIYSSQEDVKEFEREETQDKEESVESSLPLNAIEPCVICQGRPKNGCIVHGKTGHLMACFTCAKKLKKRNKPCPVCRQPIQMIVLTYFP
The target in assay [32] is Peroxisome proliferator-activated receptor gamma/Nuclear receptor corepressor 2 (Homo sapiens, UniProt P37231+Q9Y618). Type of assay: functional.
Chain of Peroxisome proliferator-activated receptor gamma/Nuclear receptor corepressor 2 (P37231 whole entry): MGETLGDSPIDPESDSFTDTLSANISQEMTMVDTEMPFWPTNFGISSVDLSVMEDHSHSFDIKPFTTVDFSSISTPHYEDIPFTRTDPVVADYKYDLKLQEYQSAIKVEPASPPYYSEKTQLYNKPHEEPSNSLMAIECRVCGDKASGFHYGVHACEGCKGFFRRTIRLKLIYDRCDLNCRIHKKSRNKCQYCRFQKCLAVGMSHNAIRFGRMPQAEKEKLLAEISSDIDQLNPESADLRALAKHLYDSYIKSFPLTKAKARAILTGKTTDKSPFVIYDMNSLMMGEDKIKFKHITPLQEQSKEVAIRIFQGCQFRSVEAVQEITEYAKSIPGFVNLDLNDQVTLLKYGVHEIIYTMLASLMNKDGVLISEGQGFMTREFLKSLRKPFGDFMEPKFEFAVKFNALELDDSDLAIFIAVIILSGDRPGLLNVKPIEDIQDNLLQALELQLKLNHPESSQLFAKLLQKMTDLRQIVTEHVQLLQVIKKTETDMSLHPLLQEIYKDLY
Chain of Peroxisome proliferator-activated receptor gamma/Nuclear receptor corepressor 2 (Q9Y618 whole entry): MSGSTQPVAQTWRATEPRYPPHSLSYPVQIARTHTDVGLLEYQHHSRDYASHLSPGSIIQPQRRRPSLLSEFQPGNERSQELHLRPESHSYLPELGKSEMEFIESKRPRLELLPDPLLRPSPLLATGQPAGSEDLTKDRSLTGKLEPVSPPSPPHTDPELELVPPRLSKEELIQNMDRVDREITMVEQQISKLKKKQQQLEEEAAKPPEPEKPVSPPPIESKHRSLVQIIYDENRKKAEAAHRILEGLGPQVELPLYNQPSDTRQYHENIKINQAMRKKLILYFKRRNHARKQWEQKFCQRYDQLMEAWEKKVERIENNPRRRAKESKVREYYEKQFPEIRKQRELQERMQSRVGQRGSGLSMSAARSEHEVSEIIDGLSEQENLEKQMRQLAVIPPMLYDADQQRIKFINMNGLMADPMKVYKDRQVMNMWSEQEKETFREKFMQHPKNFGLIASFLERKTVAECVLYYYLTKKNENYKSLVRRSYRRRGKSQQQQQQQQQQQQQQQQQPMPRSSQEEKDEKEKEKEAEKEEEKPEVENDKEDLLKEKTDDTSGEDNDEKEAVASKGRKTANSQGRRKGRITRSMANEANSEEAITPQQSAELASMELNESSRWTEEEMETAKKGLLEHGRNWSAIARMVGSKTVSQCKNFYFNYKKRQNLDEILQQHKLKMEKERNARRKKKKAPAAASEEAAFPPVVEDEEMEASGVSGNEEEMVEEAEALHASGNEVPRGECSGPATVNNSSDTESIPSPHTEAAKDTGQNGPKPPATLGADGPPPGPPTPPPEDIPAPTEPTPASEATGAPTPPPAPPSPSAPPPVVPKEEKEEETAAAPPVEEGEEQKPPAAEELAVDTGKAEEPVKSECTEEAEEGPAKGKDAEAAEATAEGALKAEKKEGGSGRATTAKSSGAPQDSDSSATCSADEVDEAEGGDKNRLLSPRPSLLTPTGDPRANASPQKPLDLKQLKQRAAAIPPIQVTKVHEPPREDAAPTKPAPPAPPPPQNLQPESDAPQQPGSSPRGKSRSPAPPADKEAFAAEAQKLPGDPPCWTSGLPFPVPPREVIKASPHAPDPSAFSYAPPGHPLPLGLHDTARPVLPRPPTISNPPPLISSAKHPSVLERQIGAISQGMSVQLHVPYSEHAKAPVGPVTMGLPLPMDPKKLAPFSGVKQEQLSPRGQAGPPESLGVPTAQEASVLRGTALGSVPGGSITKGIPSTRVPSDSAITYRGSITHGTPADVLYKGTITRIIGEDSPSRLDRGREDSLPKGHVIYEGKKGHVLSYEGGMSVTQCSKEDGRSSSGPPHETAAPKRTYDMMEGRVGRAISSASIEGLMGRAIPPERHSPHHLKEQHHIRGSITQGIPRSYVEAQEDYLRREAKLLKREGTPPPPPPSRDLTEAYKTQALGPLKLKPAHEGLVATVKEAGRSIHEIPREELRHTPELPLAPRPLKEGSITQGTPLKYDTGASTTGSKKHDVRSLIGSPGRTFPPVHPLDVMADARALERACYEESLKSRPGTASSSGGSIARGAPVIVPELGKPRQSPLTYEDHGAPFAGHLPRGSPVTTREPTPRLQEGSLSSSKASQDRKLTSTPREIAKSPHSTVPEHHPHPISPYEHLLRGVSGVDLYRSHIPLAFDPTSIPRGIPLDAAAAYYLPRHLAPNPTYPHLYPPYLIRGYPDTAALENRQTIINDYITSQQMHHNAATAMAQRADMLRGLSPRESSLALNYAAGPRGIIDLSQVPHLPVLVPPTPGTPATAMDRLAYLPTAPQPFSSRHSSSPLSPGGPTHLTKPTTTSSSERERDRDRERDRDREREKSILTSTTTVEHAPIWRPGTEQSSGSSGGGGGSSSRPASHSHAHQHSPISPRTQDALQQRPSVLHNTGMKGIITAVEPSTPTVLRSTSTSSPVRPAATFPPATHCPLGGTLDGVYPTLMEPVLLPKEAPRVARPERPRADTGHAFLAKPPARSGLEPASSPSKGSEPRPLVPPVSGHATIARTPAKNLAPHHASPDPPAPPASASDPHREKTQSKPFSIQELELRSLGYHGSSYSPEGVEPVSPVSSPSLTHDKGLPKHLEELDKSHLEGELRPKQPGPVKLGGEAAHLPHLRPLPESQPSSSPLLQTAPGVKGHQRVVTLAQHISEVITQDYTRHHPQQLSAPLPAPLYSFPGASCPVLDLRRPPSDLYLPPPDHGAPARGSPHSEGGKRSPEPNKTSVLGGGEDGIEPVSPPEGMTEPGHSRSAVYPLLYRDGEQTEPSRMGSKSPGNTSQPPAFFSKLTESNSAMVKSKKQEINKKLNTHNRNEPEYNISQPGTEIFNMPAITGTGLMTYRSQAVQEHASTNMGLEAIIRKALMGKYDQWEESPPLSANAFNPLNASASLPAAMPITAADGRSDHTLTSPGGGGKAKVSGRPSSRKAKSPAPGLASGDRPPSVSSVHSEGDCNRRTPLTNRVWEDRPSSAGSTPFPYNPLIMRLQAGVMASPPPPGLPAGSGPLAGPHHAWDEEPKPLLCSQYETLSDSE
Assay [33] addresses Photoreceptor-specific nuclear receptor (Homo sapiens, UniProt Q9Y5X4). Type of assay: functional.
Assay [34] deals with NS3 (Hepatitis C virus, UniProt A3EZJ3). The assay can be described thus: PubChem AID 2173. Further details: species or system Hepacivirus hominis.
Assay [35] addresses Heat shock protein HSP 90-alpha (Homo sapiens, UniProt P07900). In kind it is functional, organism-based.
A short description of assay [36]: A cytotoxicity screen of small molecule inhibitors of the PhoP region in Salmonella typhi identified in the primary screen. [Related pubchem assays: 1850, 1864, 1985 ]. Type of assay: functional.
For assay [37], the target named is Chaperone protein dnaK (Escherichia coli, UniProt C3TRK2). Briefly: E. coli DnaK binders, calorimetric Kd – biophysical, isothermal titration calorimetry, beta-domain, full-length DnaK, orthogonal assay for DnaK modulator project, SAR follow-up (AID 1495).

T4 sequence (P0DMV8 whole entry): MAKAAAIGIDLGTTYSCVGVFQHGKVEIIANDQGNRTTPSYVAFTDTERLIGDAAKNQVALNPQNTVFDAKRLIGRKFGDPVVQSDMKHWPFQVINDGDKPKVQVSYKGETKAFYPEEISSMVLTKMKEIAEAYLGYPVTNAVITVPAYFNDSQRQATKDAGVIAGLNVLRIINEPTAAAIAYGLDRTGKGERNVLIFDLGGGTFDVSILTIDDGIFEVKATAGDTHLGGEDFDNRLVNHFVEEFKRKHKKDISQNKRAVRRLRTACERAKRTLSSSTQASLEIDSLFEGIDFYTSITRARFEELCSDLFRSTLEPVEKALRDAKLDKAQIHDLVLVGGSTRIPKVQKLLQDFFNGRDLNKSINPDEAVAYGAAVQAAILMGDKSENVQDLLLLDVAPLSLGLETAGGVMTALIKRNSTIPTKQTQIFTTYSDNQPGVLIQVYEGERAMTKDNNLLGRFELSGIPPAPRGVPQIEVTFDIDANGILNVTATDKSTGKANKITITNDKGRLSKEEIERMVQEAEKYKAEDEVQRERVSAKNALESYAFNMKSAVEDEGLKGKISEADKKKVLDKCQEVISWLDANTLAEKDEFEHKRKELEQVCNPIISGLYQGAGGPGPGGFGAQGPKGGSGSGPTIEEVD

Regarding `CCOc1ccc(Nc2cc(C)nc(-n3nc(C)cc3C)n2)cc1`, the concentration for a half-maximal effect (EC50) (in general, the concentration needed to bring the measured effect to its halfway point) in assay [1] was > 150 µM (not active); in assay [2] it was 7.01 µM (active); in assay [5], < 0.1 µM (active); in assay [6], 0.88 µM (active); in assay [8], 0.969 µM (active); in [10], > 150 µM (not active). Also, the concentration giving a half-maximal response (EC50) in assay [12] is 0.588 µM (active). The IC50 (usually the midpoint of a concentration-inhibition curve) in assay [3] was > 80 µM (inactive); in assay [4], 0.56 µM (active). The CC50 was 0.357 µM (active) in assay [7], 6.26 µM (active) in assay [11] and 1.14 µM (active) in [13]. Moreover, the AC50 (usually the midpoint of the concentration-response curve, whichever way the signal moves) in assay [9] was 2.55 µM (active).

Take `COc1ccc2c(c1)c(CC(=O)Nc1nnc(C3CC3)s1)c(C)n2C(=O)c1ccc(Cl)cc1`: the EC50 in [14] is > 35.4 µM (not active); in [15], > 35.4 µM (not active); in assay [16], 2.28 µM (active); in [17] it was 5.09 µM (active); in assay [18] it was > 35.4 µM (not active); in [19], 21.6 µM (active).

For `O=C(CCCn1c(=S)[nH]c2ccccc2c1=O)N1CCN(c2ccc(Cl)cc2)CC1`, the IC50 in [20] was 19.8 µM (not active).

As to `Cc1ccc(OCCN2CCN(C(=O)CCC(=O)Nc3nnc(C)s3)CC2)cc1`, the concentration for half-maximal inhibition (IC50) in [21] and in assay [22] was > 100 µM (not active) throughout.

As for `CCCCN(CC)CCCNC(=O)c1cc2cc3ccc(OC)cc3nc2o1`, in [23], the concentration for a half-maximal effect (EC50) is > 50 µM (not active).

Regarding `C=CS(=O)(=O)c1ccc(Oc2ccc(S(=O)(=O)C=C)cc2)cc1`, the EC50 in [24] is > 150 µM (inconclusive); in [25] it was 3.83 µM (active); in [26], 2.24 µM (inconclusive); in [28], > 49.7 µM (not active); in assay [29] it was > 5.53 µM (active); in assay [30], > 150 µM (inconclusive). Moreover, the EC50 in assay [31] was 2.64 µM (active). For the same compound, in [27], the CC50 is given as > 1.22 µM (not active).

Take `O=C(O)c1cc(-c2ccco2)nc2ccc(Br)cc12`: the IC50 in assay [32] is 1.58 µM (active); in assay [33] it was > 39.8 µM (not active).

Take `O=C(N/N=C/c1cc(Cl)c(O)c(Cl)c1)c1cc2c(ccc3ccccc32)o1`: the 50% inhibitory concentration (IC50) in [34] was 4.26 µM (active). In [35], the concentration at half-maximal activity (AC50) was 4.54 µM (active).

For the compound `Cc1ccsc1/C=N\NC(=O)c1ccc2c(c1)OCO2`, the EC50 in assay [36] is > 50 µM (active).

As for `O=C(c1cccs1)N1CCN(CCO)CC1`, the Kd (commonly the concentration at which binding is half-saturated) in assay [37] is 16.7 µM (inactive).
